Paper PMC3818563, “Effect of Iboga Alkaloids on µ-Opioid Receptor-Coupled G Protein Activation” (PLoS ONE, 2013)
Where “and” joins values, the source holds several entries; their conditions need not be identical. Identical values can stand only once. Entries after “also recorded” stand apart in the source; their conditions may differ. Counter-ions that a name gives are not always drawn. Like-named read-outs stand apart in the source and are kept apart here.

Columns and labels:
mouse mMOR = target: T1, mouse mMOR (Mus musculus, UniProt P42866); assay: [35S]GTPγS binding in mMOR-expressing HEK 293 cells (Reith lab); type: biochemical
T1 construct: expressed in transfected cells

human hMOR = target: T2, human hMOR (Homo sapiens, UniProt P35372); assay: [35S]GTPγS binding in hMOR-expressing CHO cells (Rothman lab); type: biochemical
T2 construct: expressed in transfected cells

μ-opioid receptor (MOR) [1] = target: T3, μ-opioid receptor (MOR) (Rattus norvegicus, UniProt P33535); parameters: method as in PMID 9592058; conditions: rat thalamic membranes, cited from earlier work
[2] = estimated; cited from earlier work
μ-opioid receptor (MOR) [3] = conditions: cited from earlier work
μ-opioid receptor (MOR) [4] = target: T3, μ-opioid receptor (MOR); assay: In vitro autoradiography of agonist-stimulated [35S]GTPγS binding in rat brain sections (Childers lab); type: biochemical; parameters: from tissue; conditions: noribogaine by itself at concentrations up to 30 µM
[5] = Solubility of stocks in water; conditions: thermodynamic from solid
μ-opioid receptor (MOR) [6] = target: T3, μ-opioid receptor (MOR); assay: [35S]GTPγS binding in Sprague-Dawley rat thalamic membranes (Reith lab); type: biochemical; parameters: from tissue; host or cells: rat thalamus membranes (Sprague-Dawley; also Fischer F344 in the Janowsky lab); conditions: for Ki: Antagonist activity Ke (functional Ki), Sprague-Dawley rat thalamic membranes (Reith lab), versus DAMGO (1 µM) as agonist
μ-opioid receptor (MOR) [7] = target: T3, μ-opioid receptor (MOR); assay: [35S]GTPγS binding in Sprague-Dawley / Fischer 344 rat thalamic membranes (Janowsky lab); type: biochemical; parameters: from tissue; host or cells: rat thalamus membranes (Sprague-Dawley; also Fischer F344 in the Janowsky lab)
μ-opioid receptor (MOR) [8] = target: T3, μ-opioid receptor (MOR); assay: [35S]GTPγS binding in Sprague-Dawley rat thalamic membranes (Childers lab); type: biochemical; parameters: from tissue; host or cells: rat thalamus membranes (Sprague-Dawley; also Fischer F344 in the Janowsky lab)
NMDA receptor = conditions: cited from earlier work
α2 receptor = conditions: cited from earlier work
rat rMOR = target: T4, rat rMOR (Rattus norvegicus, UniProt P33535); assay: [35S]GTPγS binding in rMOR-expressing CHO cells (Janowsky lab); type: biochemical; conditions: read-out: Agonist activity Emax (%)
T4 construct: expressed in transfected cells

[9] = target: rat µ-opioid receptor (rMOR), recombinant (rat) (UniProt P33535)
[10] = target: µ-opioid receptor (MOR) of rat brain (rat (endogenous in rat thalamus and brain sections)) (UniProt P33535)
[11] = target: mouse µ-opioid receptor (mMOR) (mouse) (UniProt P42866)
[12] = target: µ-opioid receptor (MOR) of rat brain (rat (endogenous in rat thalamus and brain sections)) (UniProt P33535); remark: listed apart in the source
[13] = read-out: Agonist activity Emax (%)
[14] = Sprague-Dawley rat thalamic membranes, concentrations up to 100 µM
[15] = concentrations up to 10^-5 M, Janowsky lab procedures or procedures of Pablo and Mash

Chain of µ-opioid receptor (MOR) of rat brain (rat (endogenous in rat thalamus and brain sections)) (P33535 whole entry): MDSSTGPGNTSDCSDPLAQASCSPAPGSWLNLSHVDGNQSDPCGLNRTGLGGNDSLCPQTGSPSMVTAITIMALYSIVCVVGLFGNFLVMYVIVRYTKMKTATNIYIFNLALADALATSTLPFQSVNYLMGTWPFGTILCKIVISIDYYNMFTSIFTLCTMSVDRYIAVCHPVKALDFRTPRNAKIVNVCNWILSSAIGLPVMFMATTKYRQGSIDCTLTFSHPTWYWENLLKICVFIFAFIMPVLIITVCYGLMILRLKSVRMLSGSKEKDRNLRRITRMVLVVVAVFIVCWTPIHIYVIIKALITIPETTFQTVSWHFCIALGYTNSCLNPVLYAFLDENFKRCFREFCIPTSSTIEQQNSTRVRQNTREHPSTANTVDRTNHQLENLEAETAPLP
T3 sequence (P33535 whole entry): as above
T1 sequence (P42866 whole entry): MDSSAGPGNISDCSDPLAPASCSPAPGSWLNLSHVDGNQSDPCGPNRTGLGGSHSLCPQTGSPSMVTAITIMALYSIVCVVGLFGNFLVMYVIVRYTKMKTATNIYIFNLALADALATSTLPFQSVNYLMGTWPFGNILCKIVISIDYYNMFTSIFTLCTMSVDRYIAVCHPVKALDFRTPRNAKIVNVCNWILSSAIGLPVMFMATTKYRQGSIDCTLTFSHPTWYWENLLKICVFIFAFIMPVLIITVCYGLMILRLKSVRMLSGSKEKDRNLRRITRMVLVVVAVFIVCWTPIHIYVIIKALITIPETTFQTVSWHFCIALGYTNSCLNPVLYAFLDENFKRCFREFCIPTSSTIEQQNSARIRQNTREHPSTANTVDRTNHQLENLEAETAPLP
T4 sequence (P33535 whole entry): as the sequence (P33535 whole entry) above
Chain of rat µ-opioid receptor (rMOR), recombinant (rat) (P33535 whole entry): as above
T2 sequence (P35372 whole entry): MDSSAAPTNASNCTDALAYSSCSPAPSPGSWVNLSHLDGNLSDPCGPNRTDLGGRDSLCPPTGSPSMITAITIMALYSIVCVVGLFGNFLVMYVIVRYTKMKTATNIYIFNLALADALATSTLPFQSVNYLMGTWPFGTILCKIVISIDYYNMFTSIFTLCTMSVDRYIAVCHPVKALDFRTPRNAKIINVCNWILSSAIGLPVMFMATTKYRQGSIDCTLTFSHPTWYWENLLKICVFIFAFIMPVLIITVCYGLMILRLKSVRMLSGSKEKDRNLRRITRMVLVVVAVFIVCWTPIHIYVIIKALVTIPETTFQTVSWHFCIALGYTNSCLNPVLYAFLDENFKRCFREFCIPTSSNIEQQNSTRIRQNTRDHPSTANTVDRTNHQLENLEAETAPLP
Chain of mouse µ-opioid receptor (mMOR) (mouse) (P42866 whole entry): as the sequence (P42866 whole entry) above

Molecule: CC[C@H]1C[C@@H]2C[C@H]3c4[nH]c5ccc(O)cc5c4CCN(C2)[C@@H]13 [Noribogaine, Noribogaine HCl]
- EC50 (mouse mMOR): 7.42 ± 1.3 µM
- Ki (mouse mMOR): 38.3 ± 1.71 µM
- Emax (mouse mMOR; [13]): 36 ± 6%
- Ki (human hMOR): 1.48 ± 0.25 µM
- agonist classification by naloxone-sensitive stimulation of [35S]GTPγS binding (μ-opioid receptor (MOR) [1]): full MOR agonist
- EC50 (μ-opioid receptor (MOR) [1]; read-out: EC50 for stimulating [35S]GTPγS binding): 0.324 µM
- half-life relative to parent compound [2]: considerably longer than that of the parent compound
- affinity for the μ-opioid receptor (MOR) (μ-opioid receptor (MOR) [3]): low micromolar range
- effect on [35S]GTPγS binding in any brain region (μ-opioid receptor (MOR) [4]): had no effect
- solubility [5]: ≥ 1000 µM
- IC50 (μ-opioid receptor (MOR) [6]): 84 ± 27.8 µM
- Ki (μ-opioid receptor (MOR) [6]): 13 µM and 13.3 µM
- stimulation of [35S]GTPγS binding (μ-opioid receptor (MOR) [6]; [14]): no significant stimulation; also recorded: no efficacy
- stimulation of [35S]GTPγS binding (μ-opioid receptor (MOR) [7]; [15]): did not stimulate
- inhibition of the stimulation evoked by 1 µM DAMGO (μ-opioid receptor (MOR) [8]; Sprague-Dawley rat thalamic membranes (Childers lab), noribogaine up to 10 µM): did not inhibit
- effect on [35S]GTPγS binding by itself (μ-opioid receptor (MOR) [8]; concentrations up to 30 µM): did not have any effect

Molecule: COCC[C@H]1CC2CN3CCc4c([nH]c5ccccc45)[C@](C(=O)OC)(C2)[C@H]13 [18-MC, 18-methoxycoronaridine]
- EC50 (mouse mMOR): 3.42 ± 2.2 µM
- Ki (mouse mMOR): 19.1 ± 2.97 µM
- Emax (mouse mMOR; [13]): 19 ± 4%
- affinity for the μ-opioid receptor (MOR) (μ-opioid receptor (MOR) [3]): low micromolar range
- affinity for the NMDA receptor (NMDA receptor): lacks significant affinity
- solubility [5]: ≥ 1000 µM
- IC50 (μ-opioid receptor (MOR) [6]): 83.3 ± 19.4 µM
- Ki (μ-opioid receptor (MOR) [6]): 13 µM and 13.2 µM
- stimulation of [35S]GTPγS binding (μ-opioid receptor (MOR) [6]; [14]): no significant stimulation; also recorded: no efficacy
- stimulation of [35S]GTPγS binding (μ-opioid receptor (MOR) [7]; [15]): did not stimulate

Molecule: Ibogaine HCl
- stimulation of [35S]GTPγS binding (μ-opioid receptor (MOR) [1]; 100 µM ibogaine): ~20%
- stimulation of [35S]GTPγS binding (μ-opioid receptor (MOR) [1]; concentrations of 100 µM to 1 mM): 20-30%
- affinity for the μ-opioid receptor (MOR) (μ-opioid receptor (MOR) [3]): low micromolar range
- affinity for the α2 receptor (α2 receptor): no significant affinity
- stimulation of [35S]GTPγS binding (μ-opioid receptor (MOR) [6]): no significant stimulation
- stimulation of [35S]GTPγS binding (μ-opioid receptor (MOR) [7]): did not stimulate

Molecule: C[C@@H](NC(=O)[C@@H](N)Cc1ccc(O)cc1)C(=O)NCC(=O)N(C)[C@@H](Cc1ccccc1)C(=O)NCCO [DAMGO, [D-Ala^2, N-MePhe^4, Gly-ol]-enkephalin, reference compound]
- Emax (mouse mMOR; read-out: maximal stimulation of [35S]GTPγS binding over basal): 257 ± 12%
- Emax (rat rMOR): 100%
- maximal level of stimulation of [35S]GTPγS binding over basal (μ-opioid receptor (MOR) [6]; Sprague-Dawley rat thalamic membranes): 214 ± 6%
- Emax (μ-opioid receptor (MOR) [6]; [13]): 100%
- Emax (μ-opioid receptor (MOR) [7]; [13]): 100%
- Emax (μ-opioid receptor (MOR) [8]; [13]): 100%

Molecule: DAMGO ([D-Ala^2, N-MePhe^4, Gly-ol]-enkephalin) (peptide)
- EC50 of stimulation of [35S]GTPγS binding, CHO rMOR cell membranes (Janowsky lab) [9]: 0.034 µM
- EC50 of stimulation of [35S]GTPγS binding, Sprague-Dawley and Fischer 344 rat thalamic membranes (Janowsky lab) [10]: 0.122 µM
- EC50 of stimulation of [35S]GTPγS binding, Sprague-Dawley rat thalamic membranes (Childers lab) [10]: 0.21 µM
- EC50 of stimulation of [35S]GTPγS binding, Sprague-Dawley rat thalamic membranes (Reith lab) [10]: 0.238 µM
- maximal stimulation of [35S]GTPγS binding over basal, HEK 293-mMOR cell membranes (Reith lab) [11]: 257 % over basal
- maximal stimulation of [35S]GTPγS binding over basal, Sprague-Dawley rat thalamic membranes (Reith lab) [12]: 214 % over basal
